The target in this assay is T1, Human M4 (Homo sapiens, UniProt P08173).
T1 construct: expressed in transfected cells; host or cells: CHO-K1 (ATCC), co-transfected with chimeric G protein Gqi5
T1 sequence (P08173 1-479): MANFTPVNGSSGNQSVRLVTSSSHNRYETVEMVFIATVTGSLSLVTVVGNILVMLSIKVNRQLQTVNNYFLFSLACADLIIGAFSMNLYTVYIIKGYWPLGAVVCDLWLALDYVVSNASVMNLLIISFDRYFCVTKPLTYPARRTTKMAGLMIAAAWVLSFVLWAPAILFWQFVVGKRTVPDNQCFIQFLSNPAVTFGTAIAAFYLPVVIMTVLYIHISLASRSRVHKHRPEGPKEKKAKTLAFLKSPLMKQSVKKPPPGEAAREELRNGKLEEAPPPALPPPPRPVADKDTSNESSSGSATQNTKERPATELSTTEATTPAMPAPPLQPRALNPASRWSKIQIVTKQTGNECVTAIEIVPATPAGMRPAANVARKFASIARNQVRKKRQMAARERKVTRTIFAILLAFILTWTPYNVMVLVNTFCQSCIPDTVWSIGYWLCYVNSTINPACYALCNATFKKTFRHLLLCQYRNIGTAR
Kind of assay: mAChR M4 cell-based functional assay (calcium flux, antagonism of EC80 acetylcholine response). As to conditions: M4/Gqi5/CHO-K1 cells; for remaining activity at 30 µM: % ACh maximum at 30 μM, read-out: Human M4 Emin (% ACh maximum at 30 μM); for IC50: concentration-dependent decrease of the response elicited by an EC80 concentration of acetylcholine. As to the method: Human or rat M4 cDNA, along with the chimeric G protein Gqi5, were transfected into Chinese hamster ovary (CHO-K1) cells purchased from the American Type Culture Collection using Lipofectamine2000. M4/Gqi5/CHO cells were grown in Ham's F-12 medium containing 10% heat-inactivated fetal bovine serum (FBS), 20 mM HEPES, 500 μg/mL G418 sulfate, and 200 μg/mL Hygromycin B.
For high throughput measurement of agonist-evoked increases in intracellular calcium, CHO-K1 cells stably expressing muscarinic receptors were plated in growth medium lacking G418 and hygromycin at 15,000 cells/20 μL/well in Greiner 384-well black-walled, tissue culture (TC)-treated, clear-bottom plates (VWR). Cells were incubated overnight at 37° C. and 5% CO2. The next day, cells were washed using an ELX 405 (BioTek) with assay buffer; the final volume was then aspirated to 20 μL. Next, 20 μL of a 2.3 μM stock of Fluo-4/acetoxymethyl ester (Invitrogen, Carlsbad, CA), prepared as a 2.3 mM stock in DMSO and mixed in a 1:1 ratio with 10% (w/v) Pluronic F-127 and diluted in assay buffer, was added to the wells and the cell plates were incubated for 50 min at 37° C. and 5% CO2. Dye was removed by washing with the ELX 405 and the final volume was aspirated to 20 μL. Compound master plates were formatted in a 10 point concentration-response curve (CRC) format (1:3 dilutions) in 100% DMSO with a starting concentration of 10 or 1 mM using a BRAVO liquid handler (Agilent). Test compound CRCs were then transferred to daughter plates (240 nL) using the Echo acoustic plate reformatter (Labcyte, Sunnyvale, CA) and then diluted into assay buffer (40 μL) to a 2× stock using a Thermo Fisher Combi (Thermo Fisher Scientific, Waltham, MA).
Calcium flux was measured using the Functional Drug Screening System (FDSS) 6000 or 7000 (Hamamatsu Corporation, Tokyo, Japan) as an increase in the fluorescent static ratio. Compounds were applied to cells (20 μL, 2×) using the automated system of the FDSS at 2 seconds into the protocol and the data were collected at 1 Hz. At 143 s, 10 μL of an EC20 concentration of the muscarinic receptor agonist acetylcholine was added (5×), followed by the addition of 12 μL of an EC80 concentration of acetylcholine at the 268 s time point (5×). Agonist activity was analyzed as a concentration-dependent increase in calcium mobilization upon compound addition. Positive allosteric modulator activity was analyzed as a concentration-dependent increase in the EC20 acetylcholine response. Antagonist activity was analyzed as a concentration-dependent decrease in the EC80 acetylcholine response; for the purposes of the tables herein, an IC50 (inhibitory concentration 50) was calculated as a concentration-dependent decrease of the response elicited by an EC80 concentration of acetylcholine. Concentration-response curves were generated using a four-parameter logistical equation in XLFit curve fitting software (IDBS, Bridgewater, NJ) for Excel (Microsoft, Redmond, WA) or Prism (GraphPad Software, Inc., San Diego, CA) or the Dotmatics software platform (Dotmatics, Bishop's Stortford, UK).
Compounds were synthesized as described above. Activity (IC50 and Emin) was determined in the mAChR M4 cell-based functional assay as described above and the data are shown in Table 2.
For orientation: A change in cytosolic calcium serves as a functional read-out for many receptors and channels.

The structures appear in SMILES notation.

Take `CN(C)C(=O)c1cc(F)c(F)c(-c2ccc(N[C@H]3C[C@@H]4CN(CC5CCOCC5)C[C@@H]4C3)nn2)c1` [Compound A9, 3,4-difluoro-N,N-dimethyl-5-(6-(((3aR,5s,6aS)-2-((tetrahydro-2H-pyran-4-yl)methyl)octahydrocyclopenta[c]pyrrol-5-yl)amino)pyridazin-3-yl)benzamide]: the remaining activity at 30 µM turned out to be 5% and the IC50 (commonly the midpoint of a concentration-inhibition curve) was found to be 440 nM.

For `O=C(Nc1cccc(-c2ccc(N[C@H]3C[C@@H]4CN(CC5CCOCC5)C[C@@H]4C3)nn2)c1)C1CC1` [Compound A30, N-(3-(6-(((3aR,5s,6aS)-2-((tetrahydro-2H-pyran-4-yl)methyl)octahydrocyclopenta[c]pyrrol-5-yl)amino)pyridazin-3-yl)phenyl)cyclopropanecarboxamide], the remaining activity at 30 µM was determined as 3% and the IC50 worked out at 13 nM.

As to `[2H]C([2H])(C1CCOCC1)N1C[C@H]2C[C@H](Nc3ccc(-c4ccc(F)c(C(=O)NC)c4)nn3)C[C@H]2C1` [Compound A73, 2-fluoro-N-methyl-5-(6-(((3aR,5s,6aS)-2-((tetrahydro-2H-pyran-4-yl)methyl-d2)octahydrocyclopenta[c]pyrrol-5-yl)amino)pyridazin-3-yl)benzamide], the remaining activity at 30 µM was 7% and the half-maximal inhibitory concentration (IC50) came out at 310 nM.

Take `CCC(=O)Nc1ccccc1-c1ccc(N[C@H]2C[C@@H]3CN(CC4CCOCC4)C[C@@H]3C2)nn1` [Compound A44, N-(2-(6-(((3aR,5s,6aS)-2-((tetrahydro-2H-pyran-4-yl)methyl)octahydrocyclopenta[c]pyrrol-5-yl)amino)pyridazin-3-yl)phenyl)propionamide]: the remaining activity at 30 µM was 4% and the 50% inhibitory concentration (IC50) came out at 67 nM.

`[2H]C([2H])([2H])C(=O)Nc1cccc(-c2ccc(N[C@H]3C[C@@H]4CN(C([2H])([2H])C5CCOCC5)C[C@@H]4C3)nn2)c1` [Compound A62, N-(3-(6-(((3aR,5s,6aS)-2-((tetrahydro-2H-pyran-4-yl)methyl-d2)octahydrocyclopenta[c]pyrrol-5-yl)amino)pyridazin-3-yl)phenyl)acetamide-2,2,2-d3]: the remaining activity at 30 µM turned out to be 3% and the IC50 worked out at 13 nM.

Turning to `O=C(Nc1cc(F)c(F)c(-c2ccc(N[C@H]3C[C@@H]4CN(CC5CCOCC5)C[C@@H]4C3)nn2)c1)C1(C(F)(F)F)CC1` [Compound A11, N-(3,4-difluoro-5-(6-(((3aR,5s,6aS)-2-((tetrahydro-2H-pyran-4-yl)methyl)octahydrocyclopenta[c]pyrrol-5-yl)amino)pyridazin-3-yl)phenyl)-1-(trifluoromethyl)cyclopropane-1-carboxamide], the remaining activity at 30 µM came to 3% and the 50% inhibitory concentration (IC50) was found to be 66 nM.

As to `[2H]C([2H])([C@H]1CCCOC1)N1C[C@H]2C[C@H](Nc3ccc(-c4cccc(C(=O)NC)c4)nn3)C[C@H]2C1` [Compound A78, N-methyl-3-(6-(((3aR,5s,6aS)-2-(((R)-tetrahydro-2H-pyran-3-yl)methyl-d2)octahydrocyclopenta[c]pyrrol-5-yl)amino)pyridazin-3-yl)benzamide], the remaining activity at 30 µM turned out to be 8% and the half-inhibitory concentration (IC50) came to 570 nM.

`[2H]C1([2H])CC(C([2H])([2H])N2C[C@H]3C[C@H](Nc4ccc(-c5cc(F)cc(C(=O)NC)c5)nn4)C[C@H]3C2)CC([2H])([2H])O1` [Compound A82, 3-fluoro-N-methyl-5-(6-(((3aR,5s,6aS)-2-((tetrahydro-2H-pyran-4-yl-2,2,6,6-d4)methyl-d2)octahydrocyclopenta[c]pyrrol-5-yl)amino)pyridazin-3-yl)benzamide]: the remaining activity at 30 µM is 5% and the IC50 was 29 nM.
